Source: patent US20230219946A1, “PYRIMIDIN-4(3H)-ONE HETEROCYCLIC COMPOUND, PREPARATION METHOD THEREOF, AND PHARMACEUTICAL USE THEREOF” (Beijing Innocare Pharma Tech Co., Ltd., priority 2020, published 2023)
Where a name gives a salt, the structure may show the parent alone.

Experiments:
[1] = molecular target: T1, Recombinant human SHP2 full-length protein (Homo sapiens, UniProt Q06124); assay: SHP2 activity inhibition measurement (fluorescence detection, surrogate substrate DiFMUP); type: biochemical; settings: recombinant human SHP2 full-length protein activated with diphosphopeptide
T1 construct: Recombinant human SHP2 full-length protein
T1 sequence (Q06124 1-593): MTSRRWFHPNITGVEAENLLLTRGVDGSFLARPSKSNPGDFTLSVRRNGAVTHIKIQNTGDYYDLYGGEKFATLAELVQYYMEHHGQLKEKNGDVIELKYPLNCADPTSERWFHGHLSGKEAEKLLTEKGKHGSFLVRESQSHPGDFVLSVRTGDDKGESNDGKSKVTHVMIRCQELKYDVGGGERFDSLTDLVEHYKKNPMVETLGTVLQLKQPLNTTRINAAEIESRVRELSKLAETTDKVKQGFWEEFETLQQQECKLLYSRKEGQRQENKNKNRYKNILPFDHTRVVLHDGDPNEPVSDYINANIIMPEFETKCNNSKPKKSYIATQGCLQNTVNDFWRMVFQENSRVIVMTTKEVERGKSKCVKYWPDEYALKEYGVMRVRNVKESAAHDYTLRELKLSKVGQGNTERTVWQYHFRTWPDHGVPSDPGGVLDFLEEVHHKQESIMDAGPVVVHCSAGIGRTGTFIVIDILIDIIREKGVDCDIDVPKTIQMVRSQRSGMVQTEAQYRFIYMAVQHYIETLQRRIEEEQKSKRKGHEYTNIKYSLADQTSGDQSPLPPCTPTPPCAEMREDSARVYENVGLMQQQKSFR
Procedure: SHP2 activity inhibition measurement
The effect of the compound of the present invention on SHP2 activity is evaluated by rapid fluorescence detection method using the surrogate substrate DiFMUP.
(§1) The experimental method is outlined as follows:
Recombinant human SHP2 full-length protein was expressed and purified by the protein purification and identification platform of Tsinghua University; diphosphopeptide (H2N-LN(pY)IDLDLV-(dPEG8)LST(pY)ASINFQK-amide) was synthesized by Nanjing GenScript Biotechnology Co., Ltd.; surrogate substrate DiFMUP was purchased from Thermo Fisher Scientific (Cat. No. D6567); reaction buffer contained the following components: 60 mM HEPES (pH 7.2), 75 mM NaCl, 75 mM KCl, 1 mM EDTA, 0.05% TWEEN 20, and 5 mM DTT.
The compound was dissolved in DMSO (Sigma, Cat. No. D5879) and diluted to 100 μM. The resulting solution was serially diluted 4-fold with DMSO to a minimum concentration of 6.1 nM, and each concentration point was diluted 25-fold with the reaction buffer.
10 μL of compound solution and 10 μL of 0.25 nM SHP2 protein solution were added to a 384-well microplate (Corning, Cat. No. 3575), mixed well, and incubated at room temperature for 30 min. 10 μL of 0.5 μM diphosphopeptide (dissolved in the reaction buffer) was added, mixed well, and incubated at room temperature for 30 to 60 min. Subsequently, 10 μL of 60 μM DiFMUP solution (dissolved in the reaction buffer) was added, mixed well, and let stand at room temperature. After 30 min, fluorescence signals were measured at 340 nm (excitation wavelength)/450 nm (emission wavelength) using a microplate reader (EnSpire, Perkin Elmer). The fluorescence intensity value was positively correlated with the degree of dephosphorylation of the substrate, thereby reflecting the catalytic activity of SHP2. […] An inhibition curve of the compound was plotted by XLfit software and the inhibitory IC50 was calculated.

[2] = system: human non-small cell lung cancer cell line NCI-H358; assay: NCI-H358 cell proliferation inhibition (luminescent cell viability assay, CTG); type: cell-based; settings: 120 h, NCI-H358 cells, 5 days, CellTiter-Glo
Procedure: Determination of NCI-H358 cell proliferation inhibition
The effect of the compound of the present invention on proliferation of human non-small cell lung cancer cell line NCI-H358 is evaluated by luminescent cell viability assay.
as §1
The compound was dissolved in DMSO (Sigma, Cat. No. D5879) and diluted to 5 mM. The resulting solution was serially diluted 4-fold with DMSO to a minimum concentration of […], and each concentration point was diluted 50-fold with RPMI 1640 Medium (Thermo Fisher Scientific, Cat. No. 11995073). When the IC50 value of the compound was low, the initial concentration of the compound was further reduced.
NCI-H358 cells (ATCC, Cat. No. CRL-5807) were cultured in RPMI 1640 Complete Medium [RPMI 1640 Medium was supplemented with 10% FBS (GBICO, Cat. No. 10099-141) and 100 units/mL Penicillin-Streptomycin (Thermo Fisher Scientific, Cat. No. 15140122)]. The cells (15,000 cells/mL) were seeded in 90 μL of Complete Medium on a 96-well plate. After culturing overnight, 10 μL of compound solution was added to each well and cultured at 37° C. in a 5% CO2 incubator for 5 days. According to the instruction from the CellTilter-Glo (CTG) kit (Promega, Cat. No. G7572), the cell culture plate was removed from incubator and equilibrated to room temperature. The cells were lysed fully with 50 μL of CTG reagent and placed at room temperature for 10 min. A luminescence signal was read by the microplate reader (EnVision, Perkin Elmer). […] An inhibition curve of the compound was plotted by XLfit software and the inhibitory IC50 was calculated.

hERG potassium channel = hERG potassium channel (Homo sapiens, UniProt Q12809); settings: 3 μM test compound, whole-cell patch clamp, HEK293-hERG, room temperature
Procedure: All electrophysiological experiments were conducted at room temperature.

Chain of hERG potassium channel (Q12809 whole entry): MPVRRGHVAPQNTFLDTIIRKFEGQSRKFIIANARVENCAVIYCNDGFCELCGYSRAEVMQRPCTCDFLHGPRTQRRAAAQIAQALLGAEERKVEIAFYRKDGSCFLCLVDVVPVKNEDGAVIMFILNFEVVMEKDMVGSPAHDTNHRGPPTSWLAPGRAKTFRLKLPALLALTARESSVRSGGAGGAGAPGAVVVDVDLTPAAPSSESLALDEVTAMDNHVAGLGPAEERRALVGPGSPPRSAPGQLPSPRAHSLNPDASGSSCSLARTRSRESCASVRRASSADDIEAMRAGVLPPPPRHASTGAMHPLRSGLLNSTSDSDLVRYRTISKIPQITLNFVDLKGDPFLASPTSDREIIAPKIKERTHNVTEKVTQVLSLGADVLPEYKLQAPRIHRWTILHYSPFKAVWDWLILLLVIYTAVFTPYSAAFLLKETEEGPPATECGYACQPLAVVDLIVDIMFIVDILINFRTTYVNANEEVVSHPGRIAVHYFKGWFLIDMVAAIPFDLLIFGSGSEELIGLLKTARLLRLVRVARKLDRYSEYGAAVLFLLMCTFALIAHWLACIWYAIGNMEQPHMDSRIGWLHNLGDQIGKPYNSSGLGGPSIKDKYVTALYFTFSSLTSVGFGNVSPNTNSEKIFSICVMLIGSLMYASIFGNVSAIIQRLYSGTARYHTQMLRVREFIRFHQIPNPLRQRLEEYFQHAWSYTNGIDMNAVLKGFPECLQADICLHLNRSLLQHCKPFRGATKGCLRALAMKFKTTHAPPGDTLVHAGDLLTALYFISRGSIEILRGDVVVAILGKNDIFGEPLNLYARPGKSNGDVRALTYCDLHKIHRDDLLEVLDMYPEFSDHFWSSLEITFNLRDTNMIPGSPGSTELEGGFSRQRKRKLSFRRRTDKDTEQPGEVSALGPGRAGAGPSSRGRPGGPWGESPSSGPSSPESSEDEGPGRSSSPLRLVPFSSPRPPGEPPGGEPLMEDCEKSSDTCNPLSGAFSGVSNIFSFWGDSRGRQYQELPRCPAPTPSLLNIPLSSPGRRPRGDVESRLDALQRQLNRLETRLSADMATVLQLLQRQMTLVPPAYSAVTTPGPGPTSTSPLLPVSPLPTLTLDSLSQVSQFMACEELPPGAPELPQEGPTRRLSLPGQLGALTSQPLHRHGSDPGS

SMILES	IC50 [1] [nM]	IC50 [2] [nM]	hERG current inhibition percentage at 3 μM solubility (n = 2) (hERG potassium channel) [%]
Cn1cc2c(Cl)c(Sc3cnc(N4CCC5(CCC[C@H]5N)CC4)n(C)c3=O)ccc2n1 [Compound 7, (R)-2-(1-amino-8-azaspiro[4.5]decan-8-yl)-5-((4-chloro-2-methyl-2H-indazole-5-yl)thio)-3-methylpyrimidin-4(3H)-one hydrochloride]	12	575	10
Cn1c(N2CCC3(CCC[C@H]3N)CC2)ncc(Sc2ccn3nccc3c2Cl)c1=O [Compound 8, (R)-2-(1-amino-8-azaspiro[4.5]decan-8-yl)-5-((4-chloropyrazolo[1,5-a]pyridin-5-yl)thio)-3-methylpyrimidin-4(3H)-one formate]	8.6	309	
C[C@@H]1OCC2(CCN(c3ncc(Sc4ccn5nccc5c4Cl)c(=O)n3C)CC2)[C@@H]1N [Compound 12, 2-((3S,4S)-4-amino-3-methyl-2-oxa-8-azaspiro[4.5]decan-8-yl)-5-((4-chloropyrazolo[1,5-a]pyridin-5-yl)thio)-3-methylpyrimidin-4(3H)-one formate]	3.1	264	
Cn1c(N2CCC3(CCC[C@H]3N)CC2)ncc(Sc2ccnc3[nH]ccc23)c1=O [Compound 1, (R)-5-((1H-pyrrolo[2,3-b]pyridin-4-yl)thio)-2-(1-amino-8-azaspiro[4.5]decan-8-yl)-3-methylpyrimidin-4(3H)-one hydrochloride]	23	310	
C[C@@H]1OCC2(CCN(c3ncc(Sc4ccc5nn(C)cc5c4Cl)c(=O)n3C)CC2)[C@@H]1N [Compound 11, 2-((3S,4S)-4-amino-3-methyl-2-oxa-8-azaspiro[4.5]decan-8-yl)-5-((4-chloro-2-methyl-2H-indazole-5-yl)thio)-3-methylpyrimidin-4(3H)-one formate]	4	165	
C[C@@H]1OCC2(CCN(c3nc(N)c(Sc4ccc5nn(C)cc5c4Cl)c(=O)n3C)CC2)[C@@H]1N [Compound 14, 6-Amino-2-((3S,4S)-4-amino-3-methyl-2-oxa-8-azaspiro[4.5]decan-8-yl)-5-((4-chloro-2-methyl-2H-indazole-5-yl)thio)-3-methylpyrimidin-4(3H)-one formate]	2.5	108	
Cn1cc2c(Cl)c(Sc3cnc(N4CCC5(CC4)COC[C@H]5N)n(C)c3=O)ccc2n1 [Compound 10, (S)-2-(4-amino-2-oxa-8-azaspiro[4.5]decan-8-yl)-5-((4-chloro-2-methyl-2H-indazole-5-yl)thio)-3-methylpyrimidin-4(3H)-one]	36	1760	
